From the CheMixHub ionic liquid set

Test: xn = mol fraction of the nth substance listed

COCCn1cc[n+](C)c1.N#C[S-] + CC1COC(=O)O1
101 kPa
Settings | electrical conductivity [S/m] | viscosity [mPa·s]
288.15 K, x1 = 0.1022 | 0.963 | 4.19
288.15 K, x1 = 0.2001 | 1.05 | 5.1
288.15 K, x1 = 0.3021 | 0.967 | 7.1
288.15 K, x1 = 0.3996 | 0.843 | 11
288.15 K, x1 = 0.5012 | 0.717 | 15.9
288.15 K, x1 = 0.6015 | 0.586 | 22.3
288.15 K, x1 = 0.7032 | 0.471 | 34.5
288.15 K, x1 = 0.8004 | 0.381 | 50
288.15 K, x1 = 0.9002 | 0.286 | 68
288.15 K, x1 = 1 | 0.223 | 86
293.15 K, x1 = 0.1022 | 1.07 | 3.54
293.15 K, x1 = 0.2001 | 1.23 | 4.31
293.15 K, x1 = 0.3021 | 1.12 | 6.1
293.15 K, x1 = 0.3996 | 0.984 | 9.2
293.15 K, x1 = 0.5012 | 0.84 | 12.7
293.15 K, x1 = 0.6015 | 0.709 | 17.5
293.15 K, x1 = 0.7032 | 0.578 | 26.2
293.15 K, x1 = 0.8004 | 0.48 | 37.8
293.15 K, x1 = 0.9002 | 0.382 | 51
293.15 K, x1 = 1 | 0.315 | 67
298.15 K, x1 = 0.1022 | 1.19 | 3.05
298.15 K, x1 = 0.2001 | 1.4 | 3.71
298.15 K, x1 = 0.3021 | 1.3 | 5.3
298.15 K, x1 = 0.3996 | 1.16 | 7.8
298.15 K, x1 = 0.5012 | 1 | 10.4
298.15 K, x1 = 0.6015 | 0.844 | 14
298.15 K, x1 = 0.7032 | 0.714 | 20.3
298.15 K, x1 = 0.8004 | 0.591 | 29
298.15 K, x1 = 0.9002 | 0.492 | 39.7
298.15 K, x1 = 1 | 0.41 | 53
303.15 K, x1 = 0.1022 | 1.31 | 2.67
303.15 K, x1 = 0.2001 | 1.59 | 3.27
303.15 K, x1 = 0.3021 | 1.49 | 4.67
303.15 K, x1 = 0.3996 | 1.33 | 6.6
303.15 K, x1 = 0.5012 | 1.16 | 8.6
303.15 K, x1 = 0.6015 | 1.01 | 11.3
303.15 K, x1 = 0.7032 | 0.849 | 16.1
303.15 K, x1 = 0.8004 | 0.717 | 22.8
303.15 K, x1 = 0.9002 | 0.602 | 31.3
303.15 K, x1 = 1 | 0.52 | 42.1
308.15 K, x1 = 0.1022 | 1.44 | 2.38
308.15 K, x1 = 0.2001 | 1.79 | 2.91
308.15 K, x1 = 0.3021 | 1.69 | 4.11
308.15 K, x1 = 0.3996 | 1.53 | 5.7
308.15 K, x1 = 0.5012 | 1.34 | 7.2
308.15 K, x1 = 0.6015 | 1.17 | 9.4
308.15 K, x1 = 0.7032 | 1 | 13
308.15 K, x1 = 0.8004 | 0.867 | 18.2
308.15 K, x1 = 0.9002 | 0.749 | 25
308.15 K, x1 = 1 | 0.653 | 34.4
313.15 K, x1 = 0.1022 | 1.58 | 2.14
313.15 K, x1 = 0.2001 | 2 | 2.59
313.15 K, x1 = 0.3021 | 1.91 | 3.65
313.15 K, x1 = 0.3996 | 1.75 | 4.9
313.15 K, x1 = 0.5012 | 1.53 | 6.2
313.15 K, x1 = 0.6015 | 1.36 | 7.9
313.15 K, x1 = 0.7032 | 1.19 | 10.8
313.15 K, x1 = 0.8004 | 1.02 | 14.8
313.15 K, x1 = 0.9002 | 0.893 | 20.5
313.15 K, x1 = 1 | 0.795 | 28.6
318.15 K, x1 = 0.1022 | 1.72 | 1.94
318.15 K, x1 = 0.2001 | 2.21 | 2.36
318.15 K, x1 = 0.3021 | 2.14 | 3.3
318.15 K, x1 = 0.3996 | 1.97 | 4.28
318.15 K, x1 = 0.5012 | 1.75 | 5.3
318.15 K, x1 = 0.6015 | 1.55 | 6.7
318.15 K, x1 = 0.7032 | 1.36 | 9.1
318.15 K, x1 = 0.8004 | 1.2 | 12.3
318.15 K, x1 = 0.9002 | 1.07 | 17.1
318.15 K, x1 = 1 | 0.954 | 23.7
323.15 K, x1 = 0.1022 | 1.86 | 1.78
323.15 K, x1 = 0.2001 | 2.43 | 2.16
323.15 K, x1 = 0.3021 | 2.37 | 2.97
323.15 K, x1 = 0.3996 | 2.19 | 3.77
323.15 K, x1 = 0.5012 | 1.97 | 4.62
323.15 K, x1 = 0.6015 | 1.78 | 5.8
323.15 K, x1 = 0.7032 | 1.57 | 7.7
323.15 K, x1 = 0.8004 | 1.4 | 10.3
323.15 K, x1 = 0.9002 | 1.24 | 14.3
323.15 K, x1 = 1 | 1.12 | 20
328.15 K, x1 = 0.1022 | 2.02 | 1.65
328.15 K, x1 = 0.2001 | 2.67 | 1.99
328.15 K, x1 = 0.3021 | 2.62 | 2.68
328.15 K, x1 = 0.3996 | 2.43 | 3.33
328.15 K, x1 = 0.5012 | 2.21 | 4.05
328.15 K, x1 = 0.6015 | 1.99 | 5
328.15 K, x1 = 0.7032 | 1.78 | 6.6
328.15 K, x1 = 0.8004 | 1.6 | 8.8
328.15 K, x1 = 0.9002 | 1.45 | 12.1
328.15 K, x1 = 1 | 1.32 | 17.2
333.15 K, x1 = 0.1022 | 2.17 | 1.54
333.15 K, x1 = 0.2001 | 2.9 | 1.85
333.15 K, x1 = 0.3021 | 2.88 | 2.42
333.15 K, x1 = 0.3996 | 2.68 | 3
333.15 K, x1 = 0.5012 | 2.45 | 3.57
333.15 K, x1 = 0.6015 | 2.24 | 4.38
333.15 K, x1 = 0.7032 | 2.02 | 5.8
333.15 K, x1 = 0.8004 | 1.83 | 7.5
333.15 K, x1 = 0.9002 | 1.65 | 10.4
333.15 K, x1 = 1 | 1.51 | 14.8

CC[n+]1ccn(C)c1.[Cl-] + CC#N
Settings | viscosity [mPa·s]
373 K, 100 kPa, x2 = 0.284 | 12

CC[n+]1ccn(C)c1C.F[B-](F)(F)F + CC#N
viscosity [mPa·s], 101.3 kPa
Settings | 293.15 K | 298.15 K | 303.15 K | 308.15 K | 313.15 K | 318.15 K | 323.15 K | 328.15 K | 333.15 K
x1 = 0.02106 | 0.518 | 0.505 | 0.476 | 0.456 | 0.442 | 0.428 | 0.414 | 0.401 | 0.389
x1 = 0.04617 | 0.648 | 0.618 | 0.59 | 0.566 | 0.543 | 0.52 | 0.501 | 0.483 | 0.465
x1 = 0.07663 | 0.846 | 0.808 | 0.768 | 0.732 | 0.698 | 0.667 | 0.636 | 0.608 | 0.583
x1 = 0.1143 | 1.116 | 1.051 | 0.995 | 0.943 | 0.893 | 0.85 | 0.809 | 0.769 | 0.733
x1 = 0.1622 | 1.68 | 1.58 | 1.48 | 1.39 | 1.31 | 1.24 | 1.17 | 1.105 | 1.049
x1 = 0.2251 | 2.63 | 2.44 | 2.26 | 2.11 | 1.97 | 1.84 | 1.73 | 1.62 | 1.53
x1 = 0.3112 | 4.25 | 3.81 | 3.48 | 3.2 | 2.94 | 2.71 | 2.51 | 2.33 | 2.16
x1 = 0.4365 | 8.05 | 7.11 | 6.37 | 5.75 | 5.18 | 4.7 | 4.27 | 3.91 | 3.57
